pIC50: −log10 of the molar value.
Target: T1, MAGL (Homo sapiens, UniProt Q99685)
T1 sequence (Q99685 1-303): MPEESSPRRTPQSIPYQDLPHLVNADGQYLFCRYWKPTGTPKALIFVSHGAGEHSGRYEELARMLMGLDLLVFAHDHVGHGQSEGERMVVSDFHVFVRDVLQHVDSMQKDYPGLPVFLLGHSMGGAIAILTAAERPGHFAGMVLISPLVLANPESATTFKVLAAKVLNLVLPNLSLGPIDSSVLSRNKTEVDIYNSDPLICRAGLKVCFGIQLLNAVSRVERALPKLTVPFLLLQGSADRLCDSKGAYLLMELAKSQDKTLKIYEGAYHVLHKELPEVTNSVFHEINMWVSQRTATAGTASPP
Test: 2-AG assay (MAGL inhibitory activity; hydrolysis of 2-arachidonoylglycerol to arachidonic acid followed by mass spectrometry)
Type: biochemical
Settings: 15 min preincubation at RT, 8 μM 2-arachidonoylglycerol, 30 min at RT, RapidFire MS readout
How it was run: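 Compounds (final 12.5 μM to […], 3-fold steps) preincubated 15 min at RT with MAGL ([…]) in 50 mM TRIS, 1 mM EDTA, Tween buffer. Reaction started with 8 μM 2-arachidonoylglycerol, run 30 min at RT, quenched with ACN containing d8-arachidonic acid. Arachidonic acid quantified by RapidFire SPE-triple quadrupole MS (negative ESI), activity from arachidonic acid/d8 ratio.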

Work on `O=C(c1cccc(-c2c[nH]nc2F)c1Cl)N1CCN2C[C@@](O)(c3ccc(OC(F)F)cc3)OC[C@@H]2C1` [Example 69, [2-chloro-3-(3-fluoro-1H-pyrazol-4-yl)phenyl]-[(3R,9aS)-3-[4-(difluoromethoxy)phenyl]-3-hydroxy-1,4,6,7,9,9a-hexahydropyrazino[2,1-c][1,4]oxazin-8-yl]methanone] yielded a pIC50 of 7.29.

Molecule `COc1cccc(C(=O)N2CCN3C[C@@](O)(c4nc5ccccc5n4C)OC[C@@H]3C2)c1Cl` [Example 71, [(3S,9aS)-3-hydroxy-3-(1-methylbenzimidazol-2-yl)-1,4,6,7,9,9a-hexahydropyrazino[2,1-c][1,4]oxazin-8-yl]-(2-chloro-3-methoxy-phenyl)methanone] has a pIC50 of 5.40.

In the case of `N#Cc1cc([C@@H]2CN3CCN(C(=O)c4cccc(-c5c[nH]nc5F)c4Cl)C[C@H]3CO2)ccc1F` [Example 72, 5-[(3R,9aS)-8-[2-chloro-3-(3-fluoro-1H-pyrazol-4-yl)benzoyl]-3,4,6,7,9,9a-hexahydro-1H-pyrazino[2,1-c][1,4]oxazin-3-yl]-2-fluoro-benzonitrile], the pIC50 was 7.21.

`COc1cccc(C(=O)N2CCN3C[C@H](c4cc(Cl)c[nH]c4=O)OC[C@@H]3C2)c1Cl` [Example 74, 3-[(3S,9aS)-8-(2-chloro-3-methoxy-benzoyl)-3,4,6,7,9,9a-hexahydro-1H-pyrazino[2,1-c][1,4]oxazin-3-yl]-5-chloro-1H-pyridin-2-one] was tested, and the pIC50 was 5.66.

With `COc1cccc(C(=O)N2CCN3C[C@@H](c4cc(Cl)c[nH]c4=O)OC[C@@H]3C2)c1Cl` [Example 75, 3-[(3R,9aS)-8-(2-chloro-3-methoxy-benzoyl)-3,4,6,7,9,9a-hexahydro-1H-pyrazino[2,1-c][1,4]oxazin-3-yl]-5-chloro-1H-pyridin-2-one] the pIC50 was 6.07.

Work on `O=C(c1cccc(-c2cnco2)c1Cl)N1CCN2C[C@@](O)(c3ccc(F)c(Cl)c3)OC[C@@H]2C1` [Example 76, [(3R,9aS)-3-(3-chloro-4-fluoro-phenyl)-3-hydroxy-1,4,6,7,9,9a-hexahydropyrazino[2,1-c][1,4]oxazin-8-yl]-(2-chloro-3-oxazol-5-yl-phenyl)methanone] yielded a pIC50 of 7.81.

With `O=C(c1cccc(-c2c[nH]nc2F)c1Cl)N1CCN2C[C@@H](c3cc(Cl)c[nH]c3=O)OC[C@@H]2C1` [Example 77, 3-[(3R,9aS)-8-[2-chloro-3-(3-fluoro-1H-pyrazol-4-yl)benzoyl]-3,4,6,7,9,9a-hexahydro-1H-pyrazino[2,1-c][1,4]oxazin-3-yl]-5-chloro-1H-pyridin-2-one] the pIC50 was 7.33.

`O=C(c1cccc(-c2c[nH]nc2F)c1F)N1CCN2C[C@@](O)(c3ccc(C(F)(F)F)nc3)OC[C@@H]2C1` [Example 78, [(3R,9aS)-3-hydroxy-3-[6-(trifluoromethyl)-3-pyridyl]-1,4,6,7,9,9a-hexahydropyrazino[2,1-c][1,4]oxazin-8-yl]-[2-fluoro-3-(3-fluoro-1H-pyrazol-4-yl)phenyl]methanone] gave a pIC50 of 6.89.

`N#Cc1n[nH]cc1-c1cccc(C(=O)N2CCN3C[C@@](O)(c4ccc(C(F)(F)F)nc4)OC[C@@H]3C2)c1Cl` [Example 80, 4-[3-[(3R,9aS)-3-hydroxy-3-[6-(trifluoromethyl)-3-pyridyl]-1,4,6,7,9,9a-hexahydropyrazino[2,1-c][1,4]oxazine-8-carbonyl]-2-chloro-phenyl]-1H-pyrazole-3-carbonitrile] gave a pIC50 of 7.58.

Work on `O=C(c1cccc(-c2c[nH]nc2F)c1)N1CCN2C[C@@](O)(c3ccc(C(F)(F)F)nc3)OC[C@@H]2C1` [Example 81, [(3R,9aS)-3-hydroxy-3-[6-(trifluoromethyl)-3-pyridyl]-1,4,6,7,9,9a-hexahydropyrazino[2,1-c][1,4]oxazin-8-yl]-[3-(3-fluoro-1H-pyrazol-4-yl)phenyl]methanone] yielded a pIC50 of 7.09.

Molecule `O=C(c1cccc(-c2cn[nH]c2)c1Cl)N1CCN2C[C@@](O)(c3ccc(C(F)(F)F)nc3)OC[C@@H]2C1` [Example 82, [(3R,9aS)-3-hydroxy-3-[6-(trifluoromethyl)-3-pyridyl]-1,4,6,7,9,9a-hexahydropyrazino[2,1-c][1,4]oxazin-8-yl]-[2-chloro-3-(1H-pyrazol-4-yl)phenyl]methanone] has a pIC50 of 7.80.

`COc1cccc(C(=O)N2CCN3C[C@@H](c4cc(C)c(Cl)cn4)OC[C@@H]3C2)c1Cl` [Example 83, (2-chloro-3-methoxyphenyl)((3S,9aS)-3-(5-chloro-4-methylpyridin-2-yl)hexahydropyrazino[2,1-c][1,4]oxazin-8(1H)-yl)methanone] was tested, and the pIC50 was 7.03.

For `COc1cccc(C(=O)N2CCN3C[C@H](c4cc(C)c(Cl)cn4)OC[C@@H]3C2)c1Cl` [Example 84, (2-chloro-3-methoxyphenyl)((3R,9aS)-3-(5-chloro-4-methylpyridin-2-yl)hexahydropyrazino[2,1-c][1,4]oxazin-8(1H)-yl)methanone], the pIC50 was 6.48.

In the case of `O=C(c1cccc(-c2c[nH]nc2F)c1Cl)N1CCN2C[C@@](O)(c3ccc(C(F)(F)F)cn3)OC[C@@H]2C1` [Example 85, [(3S,9aS)-3-hydroxy-3-[5-(trifluoromethyl)-2-pyridyl]-1,4,6,7,9,9a-hexahydropyrazino[2,1-c][1,4]oxazin-8-yl]-[2-chloro-3-(3-fluoro-1H-pyrazol-4-yl)phenyl]methanone], the pIC50 was 7.42.

`O=C(c1cccc(-c2cocn2)c1Cl)N1CCN2C[C@@](O)(c3ccc(C(F)(F)F)cn3)OC[C@@H]2C1` [Example 86, [(3S,9aS)-3-hydroxy-3-[5-(trifluoromethyl)-2-pyridyl]-1,4,6,7,9,9a-hexahydropyrazino[2,1-c][1,4]oxazin-8-yl]-(2-chloro-3-oxazol-4-yl-phenyl)methanone] gave a pIC50 of 6.62.

With `COc1cccc(C(=O)N2CCN3C=C(c4nc5ccccc5s4)OCC3C2)c1Cl` (stereo not shown) [Example 87, [3-(1,3-benzothiazol-2-yl)-6,7,9,9a-tetrahydro-1H-pyrazino[2,1-c][1,4]oxazin-8-yl]-(2-chloro-3-methoxy-phenyl)methanone] the pIC50 was 6.01.

For `O=C(c1cccc(-c2c[nH]nc2F)c1Cl)N1CCN2C[C@@](F)(c3ccc(C(F)(F)F)nc3)OC[C@@H]2C1` [Example 88, [2-chloro-3-(3-fluoro-1H-pyrazol-4-yl)phenyl]-[(3S,9aS)-3-fluoro-3-[6-(trifluoromethyl)-3-pyridyl]-1,4,6,7,9,9a-hexahydropyrazino[2,1-c][1,4]oxazin-8-yl]methanone], the pIC50 was 7.97.

`COc1cccc(C(=O)N2CCN3C[C@@H](c4ccc(C(F)(F)F)nn4)OC[C@@H]3C2)c1Cl` [Example 89, (2-chloro-3-methoxy-phenyl)-[(3S,9aS)-3-[6-(trifluoromethyl)pyridazin-3-yl]-3,4,6,7,9,9a-hexahydro-1H-pyrazino[2,1-c][1,4]oxazin-8-yl]methanone] gave a pIC50 of 5.69.

In the case of `COc1cccc(C(=O)N2CCN3C[C@H](c4cc(Cl)ccn4)OC[C@@H]3C2)c1Cl` [Example 90, [(3R,9aS)-3-(4-chloro-2-pyridyl)-3,4,6,7,9,9a-hexahydro-1H-pyrazino[2,1-c][1,4]oxazin-8-yl]-(2-chloro-3-methoxy-phenyl)methanone], the pIC50 was 5.64.

`COc1cccc(C(=O)N2CCN3C[C@@H](c4cc(Cl)ccn4)OC[C@@H]3C2)c1Cl` [Example 91, [(3S,9aS)-3-(4-chloro-2-pyridyl)-3,4,6,7,9,9a-hexahydro-1H-pyrazino[2,1-c][1,4]oxazin-8-yl]-(2-chloro-3-methoxy-phenyl)methanone] was tested, and the pIC50 was 6.63.

For `O=C(c1cccc(-c2c[nH]nc2F)c1Cl)N1CCN2C[C@@](O)(c3ccc(F)c(F)c3)OC[C@@H]2C1` [Example 92, [(3R,9aS)-3-(3,4-difluorophenyl)-3-hydroxy-1,4,6,7,9,9a-hexahydropyrazino[2,1-c][1,4]oxazin-8-yl]-[2-chloro-3-(3-fluoro-1H-pyrazol-4-yl)phenyl]methanone], the pIC50 was 8.04.

With `O=C(c1cccc(-c2c[nH]nc2F)c1)N1CCN2C[C@@](O)(c3ccc(F)c(F)c3)OC[C@@H]2C1` [Example 93, [(3R,9aS)-3-(3,4-difluorophenyl)-3-hydroxy-1,4,6,7,9,9a-hexahydropyrazino[2,1-c][1,4]oxazin-8-yl]-[3-(3-fluoro-1H-pyrazol-4-yl)phenyl]methanone] the pIC50 was 7.09.

`O=C(c1cccc(-c2c[nH]nc2F)c1Cl)N1CCN2C=C(c3ccc(C(F)(F)F)cn3)OC[C@@H]2C1` [Example 94, [(9aS)-3-[5-(trifluoromethyl)-2-pyridyl]-6,7,9,9a-tetrahydro-1H-pyrazino[2,1-c][1,4]oxazin-8-yl]-[2-chloro-3-(3-fluoro-1H-pyrazol-4-yl)phenyl]methanone] showed a pIC50 of 6.66.

`O=C(c1cccc(-c2c[nH]nc2F)c1Cl)N1CCN2C[C@@H](c3ccc(F)c(F)c3)OC[C@@H]2C1` [Example 95, [(3R,9aS)-3-(3,4-difluorophenyl)-3,4,6,7,9,9a-hexahydro-1H-pyrazino[2,1-c][1,4]oxazin-8-yl]-[2-chloro-3-(3-fluoro-1H-pyrazol-4-yl)phenyl]methanone] gave a pIC50 of 8.12.

In the case of `O=C(c1cccc(-c2c[nH]nc2F)c1Cl)N1CCN2C[C@H](c3ccc(F)c(F)c3)OC[C@@H]2C1` [Example 96, [(3S,9aS)-3-(3,4-difluorophenyl)-3,4,6,7,9,9a-hexahydro-1H-pyrazino[2,1-c][1,4]oxazin-8-yl]-[2-chloro-3-(3-fluoro-1H-pyrazol-4-yl)phenyl]methanone], the pIC50 was 5.91.
